Two compounds from the NIST ThermoML archive (doi:10.1016/j.jct.2018.07.025) can be followed below.

The nature of data set [1]: Molar enthalpy of transition or fusion. To be noted: Crystal; DSC.
The conditions of data set [2]: Crystal; DTA.

Numbers after ± are expanded uncertainties.

Turning to `COC(=O)N(O)c1ccccc1COc1ccn(-c2ccc(Cl)cc2)n1`, the “Molar enthalpy of transition or fusion” value in data set [1] worked out at 12.3 ± 0.311 kcal/mol. Moreover, in data set [2], the Normal melting temperature is 143.30 ± 1.1 °C.
The corresponding values for `COC(=O)N(OC)c1ccccc1COc1ccn(-c2ccc(Cl)cc2)n1` [Pyraclostrobin] are 7.22 ± 0.239 kcal/mol and 60.60 ± 1.1 °C.
